According to paper PMC6421026, “Interaction of Anticancer Drugs with Human Organic Anion Transporter hOAT4” (Journal of Oncology, 2019):
Where a name gives a salt, the structure may show the parent alone.

Columns and labels:
[1] = molecular target: T1, human organic anion transporter 4 (hOAT4) (Homo sapiens, UniProt Q9NSA0); experiment: inhibition of [3H]-estrone sulfate uptake in stable hOAT4-expressing COS-7 cells, Dixon plot (IC50 […]); format: cell-based
T1 construct: gene SLC22A11
T1 sequence (Q9NSA0 1-550): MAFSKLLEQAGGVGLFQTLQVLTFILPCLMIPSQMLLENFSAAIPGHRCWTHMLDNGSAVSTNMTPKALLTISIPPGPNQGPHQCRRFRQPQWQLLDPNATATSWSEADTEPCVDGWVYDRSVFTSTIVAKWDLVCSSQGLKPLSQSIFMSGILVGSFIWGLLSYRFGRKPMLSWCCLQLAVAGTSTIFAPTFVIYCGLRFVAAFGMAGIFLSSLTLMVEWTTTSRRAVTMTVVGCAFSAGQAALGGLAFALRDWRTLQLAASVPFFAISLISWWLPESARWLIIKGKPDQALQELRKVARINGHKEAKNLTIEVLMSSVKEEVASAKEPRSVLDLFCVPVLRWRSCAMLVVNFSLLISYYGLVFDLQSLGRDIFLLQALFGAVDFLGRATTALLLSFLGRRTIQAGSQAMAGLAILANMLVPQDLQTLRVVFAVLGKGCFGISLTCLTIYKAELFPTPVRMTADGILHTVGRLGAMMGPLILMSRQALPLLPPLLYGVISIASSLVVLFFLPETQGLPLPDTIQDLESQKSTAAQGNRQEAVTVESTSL

[2] = molecular target: T1, human organic anion transporter 4 (hOAT4); experiment: inhibition of [3H]-estrone sulfate uptake in stable hOAT4-expressing COS-7 cells, Dixon plot (IC50 […]); trans-inhibition; format: cell-based

Ki [2] [µM] | Structure (SMILES) | Ki [1] [µM]
 | COc1cccc2c1C(=O)c1c(O)c3c(c(O)c1C2=O)C[C@@](O)(C(=O)CO)C[C@@H]3O[C@H]1C[C@H](N)[C@@H](O)[C@H](C)O1 [epirubicin hydrochloride] | 3
4.26 | CC(C)(C)c1nc(-c2cccc(NS(=O)(=O)c3c(F)cccc3F)c2F)c(-c2ccnc(N)n2)s1 [Dab, dabrafenib mesylate] | 
